# Measurements published in a melting point compilation (Tetko et al.; mined from patent text by program, amines drawn as free bases though some values may be those of a salt).
row,SMILES,melting point [°C]
1,C=CCCCCCCCCC(=O)N[C@H]1CCCNC(=O)C1,83 to 84
2,CCCCCCCCCCCCCCOc1ccc(OCc2ccccc2)c(C(=O)N(CC(=O)OCC)CC(=O)OCC)c1,49 to 50
3,CCOP(=O)(/C=C/c1cn(-c2ccccc2)nc1OCc1ccc(OCc2nc(-c3ccc(C)c(C(=O)O)c3)oc2CC)c(OC)c1)OCC,165 to 166
4,CCCCNC(=O)NS(=O)(=O)CCc1c(C)nn(C)c1-n1ccc2cc(C(F)(F)F)cnc21,163 to 164
5,CC(=O)Nc1ccccc1-c1nc(C)c(-c2cccnc2)[nH]1,270 to 271
6,O=S1(=O)c2cccc3cccc(c23)N1CCCN1CCN(c2ccc(Br)cc2)CC1,149
7,COc1ccc2c(c1)c(CC(=O)OCC(=O)O)c(C)n2C(=O)c1c(F)cccc1F,186
8,C#CCOc1cc(N)c(F)cc1Cl,61 to 61.5
9,CCCc1nc2c(N)nc(C)c(C)c2n1CCCCCS(=O)(=O)c1ccccn1,143 to 144
10,COC1CCC2C3CCC4CC(OC(=O)C(C)C)CCC4(C)C3CCC12C (stereo unspecified),82 to 87
11,COC(=O)C(=O)c1nsc(NC(=O)OCc2ccccc2)n1,144 to 147
